Here are results for five compounds from ChEMBL document CHEMBL5465560, “Selectivity Literature for EUbOPEN Chemogenomic Library” (2024).

Test [1] has as its target Tyrosine-protein kinase Fyn (Homo sapiens) (UniProt P06241). Conditions: at 10 µM.
For test [2], the target named is T1, Serine/threonine-protein kinase TAO1 (Homo sapiens) (UniProt Q7L7X3).
T1 sequence (whole entry): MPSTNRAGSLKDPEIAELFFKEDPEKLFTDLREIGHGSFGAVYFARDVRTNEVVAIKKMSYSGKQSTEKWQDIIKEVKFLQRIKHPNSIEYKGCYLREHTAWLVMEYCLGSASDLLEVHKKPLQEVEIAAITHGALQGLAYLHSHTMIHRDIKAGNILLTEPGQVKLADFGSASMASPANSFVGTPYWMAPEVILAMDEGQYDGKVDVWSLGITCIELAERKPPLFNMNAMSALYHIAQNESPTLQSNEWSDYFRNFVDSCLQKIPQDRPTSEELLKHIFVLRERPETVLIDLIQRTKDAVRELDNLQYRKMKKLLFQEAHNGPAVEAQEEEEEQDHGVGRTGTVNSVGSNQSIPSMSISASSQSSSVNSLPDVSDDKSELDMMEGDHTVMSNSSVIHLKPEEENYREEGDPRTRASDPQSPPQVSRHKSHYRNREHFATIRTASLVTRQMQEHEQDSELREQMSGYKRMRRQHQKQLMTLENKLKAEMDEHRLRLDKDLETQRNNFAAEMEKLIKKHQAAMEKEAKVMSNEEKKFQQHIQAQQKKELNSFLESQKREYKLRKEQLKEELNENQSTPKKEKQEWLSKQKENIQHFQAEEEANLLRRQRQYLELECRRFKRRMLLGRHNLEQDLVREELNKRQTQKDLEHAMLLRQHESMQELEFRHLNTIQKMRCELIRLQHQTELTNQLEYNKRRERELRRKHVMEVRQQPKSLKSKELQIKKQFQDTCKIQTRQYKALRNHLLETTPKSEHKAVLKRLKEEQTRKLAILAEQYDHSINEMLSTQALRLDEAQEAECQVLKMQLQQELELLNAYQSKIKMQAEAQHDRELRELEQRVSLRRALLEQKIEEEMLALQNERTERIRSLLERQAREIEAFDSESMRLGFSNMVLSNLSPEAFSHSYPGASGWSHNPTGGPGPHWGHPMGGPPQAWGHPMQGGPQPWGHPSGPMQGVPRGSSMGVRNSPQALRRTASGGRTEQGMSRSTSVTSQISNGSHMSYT
Conditions: at 10 µM.

In test [3] the target is Tyrosine-protein kinase JAK1 (Homo sapiens, UniProt P23458). The conditions noted are these: at 10 µM.
Test [4] concerns the target T2, Serine/threonine-protein kinase TBK1 (Homo sapiens) (UniProt Q9UHD2).
T2 sequence (whole entry): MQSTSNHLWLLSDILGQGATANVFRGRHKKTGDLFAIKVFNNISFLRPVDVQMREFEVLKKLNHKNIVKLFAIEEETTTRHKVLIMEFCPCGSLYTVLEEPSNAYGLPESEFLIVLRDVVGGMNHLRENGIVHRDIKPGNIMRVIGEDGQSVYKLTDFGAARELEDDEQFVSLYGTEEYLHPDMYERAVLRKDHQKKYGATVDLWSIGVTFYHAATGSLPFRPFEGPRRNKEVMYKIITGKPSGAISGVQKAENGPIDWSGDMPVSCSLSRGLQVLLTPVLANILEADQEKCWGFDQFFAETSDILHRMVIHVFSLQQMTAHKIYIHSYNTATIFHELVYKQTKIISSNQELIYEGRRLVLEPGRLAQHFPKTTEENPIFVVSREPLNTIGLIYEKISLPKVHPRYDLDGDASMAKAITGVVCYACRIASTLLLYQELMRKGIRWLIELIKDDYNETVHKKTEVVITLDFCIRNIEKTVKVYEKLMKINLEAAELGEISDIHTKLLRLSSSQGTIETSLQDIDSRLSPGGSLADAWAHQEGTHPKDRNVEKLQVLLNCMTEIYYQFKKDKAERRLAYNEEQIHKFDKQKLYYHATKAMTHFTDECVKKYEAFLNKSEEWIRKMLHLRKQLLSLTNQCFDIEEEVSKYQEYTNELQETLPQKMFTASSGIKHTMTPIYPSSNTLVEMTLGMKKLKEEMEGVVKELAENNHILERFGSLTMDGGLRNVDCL
Kind of test: Selectivity interaction (ActivX KiNativ screen (kinase selectivity in THP-1 cell lysates)) EUB0000639a TBK1. The conditions noted are these: lysate, at 0.04 µM. In kind it is subcellular.

The target of test [5] is T3, Tyrosine-protein kinase receptor TYRO3 (Homo sapiens) (UniProt Q06418).
T3 sequence (whole entry): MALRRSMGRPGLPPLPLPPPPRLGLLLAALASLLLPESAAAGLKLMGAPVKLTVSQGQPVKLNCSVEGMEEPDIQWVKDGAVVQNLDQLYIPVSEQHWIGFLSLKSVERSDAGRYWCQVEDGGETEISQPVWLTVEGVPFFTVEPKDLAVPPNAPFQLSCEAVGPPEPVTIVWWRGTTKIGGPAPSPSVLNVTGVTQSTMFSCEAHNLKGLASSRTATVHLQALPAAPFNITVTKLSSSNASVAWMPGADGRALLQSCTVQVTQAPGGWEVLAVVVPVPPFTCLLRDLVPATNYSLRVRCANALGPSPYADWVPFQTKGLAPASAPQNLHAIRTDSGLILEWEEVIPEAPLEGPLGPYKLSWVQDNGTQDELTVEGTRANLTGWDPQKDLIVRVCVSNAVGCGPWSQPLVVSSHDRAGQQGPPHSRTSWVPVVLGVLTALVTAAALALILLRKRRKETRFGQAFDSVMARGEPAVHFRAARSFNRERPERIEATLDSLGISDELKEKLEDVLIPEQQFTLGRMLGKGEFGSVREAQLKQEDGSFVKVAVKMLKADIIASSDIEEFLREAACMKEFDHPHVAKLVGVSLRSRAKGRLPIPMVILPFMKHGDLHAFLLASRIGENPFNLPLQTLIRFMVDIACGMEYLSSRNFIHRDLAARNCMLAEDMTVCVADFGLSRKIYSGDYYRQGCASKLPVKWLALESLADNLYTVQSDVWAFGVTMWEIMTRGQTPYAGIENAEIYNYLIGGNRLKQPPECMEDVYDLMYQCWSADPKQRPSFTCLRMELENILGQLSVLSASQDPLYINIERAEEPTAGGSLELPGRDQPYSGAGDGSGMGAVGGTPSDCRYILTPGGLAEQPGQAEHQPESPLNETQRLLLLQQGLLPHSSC
Briefly: Selectivity interaction (KinomeScan (DiscoverX)) EUB0001049a TYRO3. Conditions: at 1 µM.

Test [6] concerns the target Wee1-like protein kinase (Homo sapiens) (UniProt P30291). Briefly: Selectivity interaction (KinomeScan (DiscoverX)) EUB0000092b WEE1. Conditions: at 10 µM.

Sequence of Tyrosine-protein kinase Fyn (Homo sapiens) (P06241 2-537 limits assumed): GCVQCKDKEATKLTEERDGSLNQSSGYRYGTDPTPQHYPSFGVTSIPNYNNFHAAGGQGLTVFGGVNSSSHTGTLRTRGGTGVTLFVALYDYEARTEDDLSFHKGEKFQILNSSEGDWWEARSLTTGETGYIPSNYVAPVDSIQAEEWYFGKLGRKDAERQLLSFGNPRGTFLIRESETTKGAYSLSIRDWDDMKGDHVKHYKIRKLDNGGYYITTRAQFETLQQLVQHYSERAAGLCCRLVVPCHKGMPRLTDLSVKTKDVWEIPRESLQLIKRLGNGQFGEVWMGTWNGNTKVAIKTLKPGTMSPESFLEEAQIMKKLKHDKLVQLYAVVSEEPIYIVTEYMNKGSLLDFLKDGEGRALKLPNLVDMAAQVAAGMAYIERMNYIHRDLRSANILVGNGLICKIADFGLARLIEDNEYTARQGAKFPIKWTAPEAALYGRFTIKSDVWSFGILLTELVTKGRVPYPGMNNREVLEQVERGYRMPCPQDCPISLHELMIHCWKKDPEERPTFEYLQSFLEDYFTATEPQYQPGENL
Sequence of Tyrosine-protein kinase JAK1 (P23458 whole entry): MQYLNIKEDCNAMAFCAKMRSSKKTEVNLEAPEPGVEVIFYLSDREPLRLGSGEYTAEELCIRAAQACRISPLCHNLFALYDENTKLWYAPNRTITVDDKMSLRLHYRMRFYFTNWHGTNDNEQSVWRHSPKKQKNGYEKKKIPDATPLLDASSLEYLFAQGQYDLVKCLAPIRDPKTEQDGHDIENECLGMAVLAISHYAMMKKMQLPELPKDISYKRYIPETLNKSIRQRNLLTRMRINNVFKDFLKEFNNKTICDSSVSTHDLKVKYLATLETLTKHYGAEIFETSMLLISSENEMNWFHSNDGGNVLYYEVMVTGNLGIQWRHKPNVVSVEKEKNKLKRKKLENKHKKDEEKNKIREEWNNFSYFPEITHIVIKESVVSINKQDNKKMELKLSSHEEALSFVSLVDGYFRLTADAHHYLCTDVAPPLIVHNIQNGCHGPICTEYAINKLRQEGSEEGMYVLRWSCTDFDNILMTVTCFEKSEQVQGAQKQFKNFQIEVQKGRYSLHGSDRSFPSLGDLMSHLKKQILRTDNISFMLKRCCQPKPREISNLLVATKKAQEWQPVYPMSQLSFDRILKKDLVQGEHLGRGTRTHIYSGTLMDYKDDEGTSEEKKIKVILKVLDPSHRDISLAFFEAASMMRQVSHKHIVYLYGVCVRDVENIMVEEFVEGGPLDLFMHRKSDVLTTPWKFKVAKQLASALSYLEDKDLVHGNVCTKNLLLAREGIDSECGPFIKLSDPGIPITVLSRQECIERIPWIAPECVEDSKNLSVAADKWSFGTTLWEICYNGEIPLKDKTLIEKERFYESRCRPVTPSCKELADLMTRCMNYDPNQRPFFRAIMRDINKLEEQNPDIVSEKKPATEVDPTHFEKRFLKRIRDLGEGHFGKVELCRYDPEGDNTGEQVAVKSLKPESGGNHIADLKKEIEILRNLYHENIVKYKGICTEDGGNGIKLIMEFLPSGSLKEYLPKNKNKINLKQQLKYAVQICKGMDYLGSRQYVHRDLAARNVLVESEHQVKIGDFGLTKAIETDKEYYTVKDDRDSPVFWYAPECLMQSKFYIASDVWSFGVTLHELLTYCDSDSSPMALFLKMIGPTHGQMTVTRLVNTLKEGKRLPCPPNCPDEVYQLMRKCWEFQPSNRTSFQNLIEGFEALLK
Sequence of Wee1-like protein kinase (Homo sapiens) (P30291 whole entry, looked up): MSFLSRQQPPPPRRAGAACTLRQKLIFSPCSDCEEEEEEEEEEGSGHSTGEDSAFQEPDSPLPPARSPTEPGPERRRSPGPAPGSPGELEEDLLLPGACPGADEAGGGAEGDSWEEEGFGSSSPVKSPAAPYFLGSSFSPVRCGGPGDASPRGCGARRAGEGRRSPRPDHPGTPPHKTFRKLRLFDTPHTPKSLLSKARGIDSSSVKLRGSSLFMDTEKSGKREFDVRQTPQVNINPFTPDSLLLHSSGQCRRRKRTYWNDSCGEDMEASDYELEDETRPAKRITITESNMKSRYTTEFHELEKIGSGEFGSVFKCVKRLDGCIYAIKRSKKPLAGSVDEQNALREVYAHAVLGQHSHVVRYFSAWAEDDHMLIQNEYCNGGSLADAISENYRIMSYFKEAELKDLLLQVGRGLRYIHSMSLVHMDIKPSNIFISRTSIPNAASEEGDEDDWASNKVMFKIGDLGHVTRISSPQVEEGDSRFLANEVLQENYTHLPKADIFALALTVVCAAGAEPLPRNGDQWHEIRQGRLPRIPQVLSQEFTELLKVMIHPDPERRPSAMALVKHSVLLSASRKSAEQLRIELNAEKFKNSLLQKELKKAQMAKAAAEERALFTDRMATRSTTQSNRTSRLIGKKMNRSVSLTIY

`COCC(=O)NC/C=C/c1ccc2ncnc(Nc3ccc(Oc4ccc(C)nc4)c(C)c3)c2c1` [CP-724714] yielded a % of control in test [1] of 100%.

On to `Cc1cc([C@@H](C)Nc2ccccc2C(=O)O)c2nc(N3CCOCC3)cc(=O)n2c1` [AZD-6482], for which the % of control in test [2] worked out at 59%; in test [3], 100%. With `CC[C@@H]1[C@H](F)C(=O)N[C@@H]1COc1nccc2cc(C(N)=O)c(OC)cc12` [ZIMLOVISERTIB], in test [4], the % of inhibition was -7.8%. In test [5], `COc1cc(Nc2nc(C)cc(-c3cnn4nc(OC)ccc34)n2)cc(C(F)(F)F)c1` yielded a % of control of 76%.

In test [6], `CCC(=O)N1CCN(c2ccc(-n3c(=O)ccc4cnc5ccc(-c6cnc7ccccc7c6)cc5c43)cc2C(F)(F)F)CC1` gave a % of control of 42%.
